Test results reported in EPA's ToxValDB 9.5.
Values joined by “and” are separate entries in the source; they are usually repeats but may differ in a detail not shown here. Equal entries are not always repeated.

What was measured:
Mus musculus [1] = details: M/F
Mus musculus [2] = details: subchronic; duration: 13 weeks; oral; gavage; M; SPF-ICR
Microhyla ornata = details: short-term, whole body
Rattus norvegicus [3] = details: oral
Mus musculus [4] = details: subchronic; duration: 13 weeks; inhalation; intermittent; Whole body: Decreased weight
Rattus norvegicus [5] = details: chronic, oral, diet
Chalcophaps sp. = details: oral
Mus musculus [6] = details: repeat dose other; oral
Rattus norvegicus [7] = details: subchronic, oral, diet
Rattus norvegicus [8] = details: developmental; duration: 9 days; oral; gavage; M/F; Sprague-Dawley; developmental
Rattus norvegicus [9] = details: Hershberger, oral, gavage, Sprague-Dawley, active + Antiandrogenic + anti-androgenic + PPS delayed
Rattus norvegicus [10] = details: developmental, oral, M, generation: F1
Cavia porcellus = details: acute, Guinea Pig; for LD50: dermal
Mus musculus [11] = details: for LD50: acute
Oryctolagus sp. = details: for NOAEL: reproduction developmental, duration: 13 days, oral, gavage, New Zealand
Rattus norvegicus [12] = test system: Rattus norvegicus
Rattus norvegicus [13] = experiment: LC0; higher = less toxic; details: acute; inhalation
[14] = chronic, duration: 104 weeks, oral, diet, reduced hemoglobin and erythrocyte destruction
[15] = subchronic, inhalation, reduced body weight
[16] = gavage, Crl:CD(SD), F1: AGD (mm)
[17] = reproduction developmental, injection, Intraperitoneal, generation: F1
[18] = subchronic, duration: 90 days, oral, diet, Fischer 344
[19] = duration: 13 weeks, M/F, Fischer 344, Body Weight Changes: Body weight gain decrease + Food Consumption: decrease + Hematology: MCH decrease MCV decrease + Blood Chemistry: T-…

`CC(CCl)OC(C)CCl` (stereo unspecified) [bis(2-Chloro-1-methylethyl) ether] showed an LOAEL (Mus musculus [1]; [14]) of 198 mg/kg-day, an NOAEL (Mus musculus [1]; [14]) of 35.8 mg/kg-day and an LOAEL (Mus musculus [2]) of 9.69 mg/kg-day.
In the case of `Cc1cc(C(C)(C)c2cc(C)c(O)c(C)c2)cc(C)c1O` [4,4'-Propane-2,2-diylbis(2,6-dimethylphenol)], the LOEL (Microhyla ornata; duration: 9 day, M/F, DNA fragmentation) is reported as 1 µM and the LOEL (Microhyla ornata; duration: 11 day, EGFP activitiy) is reported as 1 µM.
For `P` [Phosphine], the LOAEL (Mus musculus [1]; [15]) was 6.3 mg/m3, the NOAEL (Mus musculus [1]; [15]) was 1.4 mg/m3 and the NOEL (Rattus norvegicus [3]; chronic, M/F, body weight and clinical parameters) was 0.026 mg/kg-day. The NOAEL (Mus musculus [4]) was 1.4 mg/m3 and the NOEL (Rattus norvegicus [5]; duration: 2 years) was 0.026 mg/kg-day.
With `CCCCOC(=O)c1ccccc1C(=O)OCCCC` [Dibutyl 1,2-benzenedicarboxylate] the LOAEL (Chalcophaps sp.) was 1.1 mg/kg-day, the NOAEL (Chalcophaps sp.) was 0.11 mg/kg-day and the LOAEL (Mus musculus [6]) was 1830 mg/kg-day. For the same molecule, the NOAEL (Mus musculus [6]) was 550 mg/kg-day, the NOEL (Rattus norvegicus [7]; F, Fischer 344, Body Weight Changes: decrease + Food Consumption: decrease + Hematology: Hct decrease, Hgb decrease, RBC decrease, N-RBC increase, MCV …) was 177 mg/kg-day and the NOEL (Rattus norvegicus [7]; M/F, Fischer 344, Body Weight Changes: decrease + Food Consumption: decrease + Hematology: Hct decrease, Hgb decrease, RBC decrease, N-RBC increase, MCV …) was less than 240 mg/kg-day. The LOAEL (Rattus norvegicus [3]; subchronic, M, mortality) was 600 mg/kg-day, the NOAEL (Rattus norvegicus [3]; subchronic, M, mortality) was 125 mg/kg-day and the NOAEL (Rattus norvegicus [8]) was 50 mg/kg-day. For the same molecule, the NOEL (Rattus norvegicus [9]; duration: 5 days) was 500 mg/kg-day, the NOEL (Rattus norvegicus [9]; duration: 10 days) was 500 mg/kg-day and the NOAEL (Rattus norvegicus [5]; duration: 52 weeks, Whole body: Increased mortality) was 125 mg/kg-day. The NOEL (Rattus norvegicus [10]; Albino, F1: AGD (units not specified)) was 50 mg/kg-day, the LOEL (Rattus norvegicus [10]; [16]) was 500 mg/kg-day and the NOEL (Rattus norvegicus [10]; [16]) was 100 mg/kg-day.
`CCCCC(CC)C(=O)O` (stereo unspecified) [2-Ethylhexanoic acid] was tested, and the LD50 (Cavia porcellus) was 6300 mg/kg and 5700 mg/kg and 4550 mg/kg, the LD50 (Cavia porcellus; occlusive) was 6500 mg/kg and ≥ 5000 mg/kg and ≤ 10000 mg/kg and the LC50 (Cavia porcellus; inhalation) was greater than 2.39 µg/mL. For the same molecule, the LD50 (Mus musculus [11]; injection, Intraperitoneal) was 270 mg/kg, the LD50 (Mus musculus [11]; injection, subcutaneous) was 910 mg/kg and the “NOAEL (% diet)” value (Mus musculus [11]; repeat dose other, oral, diet) was 1. It also gave an NOAEL (Mus musculus [11]; reproduction developmental, injection, Intraperitoneal, NMRI, generation: F1) of 500 mg/kg-day, an LOAEC (Mus musculus [11]; [17]) of 1730 mg/kg-day and an NOAEL (Mus musculus [11]; [17]) of no more than 1150 mg/kg-day. For the same molecule, the NOAEL (Mus musculus [11]; short-term, duration: 2 weeks, oral, gavage, F, B6C3F1) was 1600 mg/kg-day, the NOAEL (Mus musculus [11]; short-term, duration: 2 weeks, oral, gavage, M, B6C3F1) was 800 mg/kg-day and the LD50 (Oryctolagus sp.; acute, dermal) was 1260 mg/kg. The NOAEL (Oryctolagus sp.; F) was 25 mg/kg-day, the NOAEL (Oryctolagus sp.; generation: F1) was 250 mg/kg-day and the LD50 (Rattus norvegicus [12]; acute, dermal) was greater than 2000 mg/kg. The LC50 (Rattus norvegicus [12]; acute, inhalation) was greater than 0.015 µg/mL, the LD50 (Rattus norvegicus [12]; acute, oral, gavage) was ≥ 1600 mg/kg and ≤ 3200 mg/kg and the LD50 (Rattus norvegicus [12]; acute, oral, gavage, Sprague-Dawley) was ≥ 1600 mg/kg and ≤ 3200 mg/kg. The NOAEL (Rattus norvegicus [12]; reproduction developmental, duration: 10 days, oral, gavage, F, Fischer 344) was 250 mg/kg-day, the NOAEL (Rattus norvegicus [12]; reproduction developmental, duration: 14 days, oral, drinking water, F, Wistar) was 300 mg/kg-day and the LOAEL (Rattus norvegicus [12]; reproduction developmental, oral, F, Sprague-Dawley) was 446 mg/kg-day. The NOAEL (Rattus norvegicus [12]; reproduction developmental, oral, Sprague-Dawley, generation: F1) was 446 mg/kg-day, the NOAEL (Rattus norvegicus [12]; reproduction developmental, oral, drinking water, Wistar, generation: F0) was 300 mg/kg-day and the NOAEL (Rattus norvegicus [12]; reproduction developmental, oral, drinking water, Wistar, generation: F1) was 100 mg/kg-day. For the same molecule, the NOAEL (Rattus norvegicus [12]; reproduction developmental, oral, gavage, Wistar, generation: F1) was 900 mg/kg-day, the NOAEL (Rattus norvegicus [12]; short-term, duration: 2 weeks, oral, gavage, F, Fischer 344) was 200 mg/kg-day and the NOAEL (Rattus norvegicus [12]; short-term, duration: 2 weeks, oral, gavage, M, Fischer 344) was 200 mg/kg-day. The NOAEL (Rattus norvegicus [12]; subchronic, duration: 13 weeks, oral, diet, Fischer 344) was 300 mg/kg-day, the “LOAEL (% diet)” value (Rattus norvegicus [12]; [18]) was 0.5 and the “NOAEL (% diet)” value (Rattus norvegicus [12]; [18]) was 0.1. For the same molecule, the “NOAEL (% diet)” value (Rattus norvegicus [12]; subchronic, oral, diet, Fischer 344) was 5, the NOAEL (Rattus norvegicus [7]; [19]) was 0.5% and the NOEL (Rattus norvegicus [7]; [19]) was 0.1%. The NOEL (Rattus norvegicus [7]; F, F344/CrjBR, Body Weight Changes: decrease + Food Consumption: decrease + Blood Chemistry: Cho increase , Alb increase + Absolute Organ Weight: Liver …) was less than 71 mg/kg-day, the NOEL (Rattus norvegicus [7]; M/F, F344/CrjBR, Body Weight Changes: decrease + Food Consumption: decrease + Blood Chemistry: Cho increase , Alb increase + Absolute Organ Weight: Liver …) was less than 0.1% and the LC0 (Rattus norvegicus [13]) was 2.36 mg/L.
